Read-outs that look alike come from different tables or passages of the source.
How the values were obtained:
[1] = system: gastric cancer AGS cells; set-up: method as in PMID 23792648; settings: reference anticancer drug; cited from earlier work
[2] = Observation of purified γ-iodo-δ-lactone isomers (decomposition, translactonization); format: physicochemical; settings: purified trans,trans and cis,trans γ-iodo-δ-lactones; residue an equimolar mixture of trans and cis hydroxylactones
Experimental: Iodolactonization of 4a–c acids was carried out with I2/KI and NaHCO3 in a water/diethyl ether mixture. […] The yield of reactions was in the range of 69–85%. The reaction conditions prevented the direct synthesis of these compounds because the reaction was carried out in an alkaline solution, whereas hydroxylactonization requires an acidic environment. […] and predominantly formed in this reaction. The excess of trans-isomer is usually observed in the synthesis of γ -lactones. However, the reaction initially gave δ -iodo- γ -lactones, which, through a translactonization reaction, were transformed into the final products–hydroxylactones 12a and 13a. This was confirmed by observations of purified isomers trans,trans and cis,trans γ -iodo- δ -lactones 9b and 10b, and 9c and 10c. […] The carbocation was stabilized by the electron lone pairs of the oxygen atom present in the water molecule. The preparation of hydroxylactones from iodolactones has been described thus far only for biotransformation experiments. The synthesis described here allows obtaining these compounds without microorganisms.

[3] = system: Escherichia coli ATCC 8739; assay: Bactericidal activity, CFU counting method; format: cell-based; settings: E. coli ATCC 8739; for Number of CFU/mL (× 10^7): 18 h at 37 °C, Control 9.47, Control with DMSO 9.30
How it was run: (§1)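 Bacteria were grown 18 h on LB agar and suspended to 0.5 McFarland in 0.85% saline. Suspensions were mixed with enriched broth and compound (0.1–50 μg/mL, in DMSO) and incubated 18 h at 37 °C. Survivors were counted by CFU, with three repeats, a DMSO negative control and gentamicin as reference.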

[4] = system: Staphylococcus aureus ATCC 65389; assay: Bactericidal activity, CFU counting method; format: cell-based; settings: S. aureus ATCC 65389; 18 h at 37 °C; Control 21.36, Control with DMSO 20.85
How it was run: as §1

[5] = system: AGS cell lines (human gastric adenocarcinoma); assay: MTT reduction cytotoxicity assay; format: cell-based; settings: for mean percentage of viable cells ± SD: 24 h
[6] = system: L929 cell lines (mouse fibroblasts); assay: MTT reduction cytotoxicity assay; format: cell-based; settings: 24 h
[7] = MTT reduction cytotoxicity assay; format: cell-based, human; settings: human, AGS cells (human gastric adenocarcinoma), 24 h, read-out: mean percentage of viable cells ± SD
[8] = MTT reduction cytotoxicity assay; format: cell-based, mouse; settings: mouse, L929 cells (mouse fibroblasts), read-out: mean percentage of viable cells ± SD

Compound	stability of purified isomer (in words) [2]	Number of CFU/mL (× 10^7) [3]	Number of CFU/mL (× 10^7) [4]	IC50 [5]	mean percentage of viable cells ± SD ([5]; 0.1 μg/mL)	mean percentage of viable cells ± SD ([5]; 0.5 μg/mL)	mean percentage of viable cells ± SD ([5]; 5 μg/mL)	mean percentage of viable cells ± SD ([5]; 10 μg/mL)	mean percentage of viable cells ± SD ([5]; 20 μg/mL)	mean percentage of viable cells ± SD ([5]; 50 μg/mL)	mean percentage of viable cells ± SD ([6]; 0.1 μg/mL)	mean percentage of viable cells ± SD ([6]; 0.5 μg/mL)	mean percentage of viable cells ± SD ([6]; 5 μg/mL)	mean percentage of viable cells ± SD ([6]; 10 μg/mL)	mean percentage of viable cells ± SD ([6]; 20 μg/mL)	mean percentage of viable cells ± SD ([6]; 50 μg/mL)	further results
COc1cccc2c1C(=O)c1c(O)c3c(c(O)c1C2=O)C[C@@](O)(C(=O)CO)C[C@@H]3O[C@H]1C[C@H](N)[C@H](O)[C@H](C)O1 [doxorubicin]																	IC50 [1]: 0.025 µM
CC1CC(=O)OC(c2ccccc2)C1I (mixture of isomers) [10b, Cis,trans-tetrahydro-5-iodo-4-methyl-6-phenylpyran-2-one]	rapid decomposition with release of iodine	7.65 × 10^7 CFU/mL	5.92 × 10^7 CFU/mL	1.8 µM	58 ± 0.07%	43 ± 0.02%	37 ± 0.03%	16 ± 0.09%	14 ± 0.08%	10 ± 0.06%	25 ± 0.08%	20 ± 0.03%	15 ± 0.08%	7 ± 0.15%	5 ± 0.06%	1 ± 0.02%	
CC1CC(=O)OC(c2ccccc2)C1I (stereo not drawn) [9b, Trans,trans-tetrahydro-5-iodo-4-methyl-6-phenylpyran-2-one]	rapid decomposition with release of iodine	9.02 × 10^7 CFU/mL	21.25 × 10^7 CFU/mL														melting point: 107 to 108 °C; IC50 ([5]; Homo sapiens): 1.4 µM; viability at 24 h, 0.1 μg/mL ([7]; 0.1 μg/mL): 54 ± 0.15%; viability at 24 h, 0.5 μg/mL ([7]; 0.5 μg/mL): 52 ± 0.15%; viability at 24 h, 5 μg/mL ([7]; 5 μg/mL): 43 ± 0.12%; viability at 24 h, 10 μg/mL ([7]; 10 μg/mL): 26 ± 0.03%; viability at 24 h, 20 μg/mL ([7]; 20 μg/mL): 15 ± 0.06%; viability at 24 h, 50 μg/mL ([7]; 50 μg/mL): 8 ± 0.09%; viability at 24 h, 0.1 μg/mL ([8]; 0.1 μg/mL): 23 ± 0.03%; viability at 24 h, 0.5 μg/mL ([8]; 0.5 μg/mL): 18 ± 0.03%; viability at 24 h, 5 μg/mL ([8]; 5 μg/mL): 13 ± 0.07%; viability at 24 h, 10 μg/mL ([8]; 10 μg/mL): 11 ± 0.06%; viability at 24 h, 20 μg/mL ([8]; 20 μg/mL): 4 ± 0.15%; viability at 24 h, 50 μg/mL ([8]; 50 μg/mL): 1 ± 0.12%
CC1CC(=O)OC(c2ccc(F)cc2)C1I (mixture of isomers) [10c, Cis,trans-6-(4-fluorophenyl)-tetrahydro-5-iodo-4-methylpyran-2-one]	rapid decomposition with release of iodine	2.87 × 10^7 CFU/mL	6.30 × 10^7 CFU/mL	1.7 µM	38 ± 0.06%	23 ± 0.15%	20 ± 0.02%	13 ± 0.03%	10 ± 0.07%	8 ± 0.03%	22 ± 0.05%	18 ± 0.03%	12 ± 0.07%	6 ± 0.09%	2 ± 0.15%	2 ± 0.05%	less CFU/mL (reduction of the number of CFU/mL) ([3]; versus control): 70–78%
